“And” between values parts separate entries of the source, which are not always exact repeats. Equal entries are not always repeated. Where two headings read alike, the source gives them in different places.
How the values were obtained:
[1] = Phase 1 single-dose administration study: plasma concentration of Compound (2) by LC/MS/MS; conditions: for Average Plasma Concentrations of Compound (2) after Single-Dose Administration: oral; for Judgment Trough Value / Plasma Concentration Trough Value: Measured Value, Single, Once
Procedure: (§1) A phase 1 clinical trial was conducted to evaluate the safety, tolerability, and pharmacokinetics of Compound (1) when orally administered to healthy adult males.
(§2) This clinical trial was a single-center, randomized, double-blind, placebo-controlled, single and multiple ascending dose study with the primary objective of evaluating the safety and tolerability of Compound (1) when orally administered to healthy adult males.
(§3) The subjects in each cohort consisted of 8 people, of which 6 were assigned to Compound (1) and 2 were assigned to placebo, and they were administered the drug.
(§4) The plasma concentration of Compound (2) was measured using a validated measurement method. Specifically, plasma was separated from collected blood and processed, and then the plasma concentration was measured by an LC/MS/MS apparatus.
Compound (1) was orally administered once to 6 healthy adult males per dose and dosage form at doses of 6, 20, 100, 200, and 400 mg in the form of hard capsules (CAP), liquid self-emulsifying drug delivery system (L-SEDDS), or soft capsule self-emulsifying drug delivery system (C-SEDDS).

[2] = for 24-Hour Post-Dose Trough Values of Compound (2) after Repeated Administration / Average Plasma Concentrations of Compound (2) on Day 10 of Repeated Administration: Compound (1) 400 mg once daily L-SEDDS
Procedure: as §1, §2, §3
Day 8, when repeated administration was started, corresponds to administration day 1 (Day 1), and day 17 corresponds to administration day 10 (Day 10).
as §4
For twice-daily administration of C-SEDDS, blood was further collected at 13, 14, 14.5, and 16 hours later to quantify Compound (2).

[3] = Measured Value, Repeated, Once daily, 400/L-SEDDS, day 10

Average Plasma Concentrations of Compound (2) after Single-Dose Administration ([1]; Compound (1) 200 mg L-SEDDS, Time 6 h): 3.97 ng/mL
Average Plasma Concentrations of Compound (2) after Single-Dose Administration ([1]; Compound (1) 200 mg L-SEDDS, Time 7 h): 2.89 ng/mL
Average Plasma Concentrations of Compound (2) after Single-Dose Administration ([1]; Compound (1) 200 mg L-SEDDS, Time 8 h): 2.54 ng/mL
Average Plasma Concentrations of Compound (2) after Single-Dose Administration ([1]; Compound (1) 200 mg L-SEDDS, Time 12 h): 2.07 ng/mL
Average Plasma Concentrations of Compound (2) after Single-Dose Administration ([1]; Compound (1) 200 mg L-SEDDS, Time 15 h): 2.00 ng/mL
Average Plasma Concentrations of Compound (2) after Single-Dose Administration ([1]; Compound (1) 200 mg L-SEDDS, Time 21 h): 2.11 ng/mL
Average Plasma Concentrations of Compound (2) after Single-Dose Administration ([1]; Compound (1) 200 mg L-SEDDS, Time 24 h): 2.25 ng/mL
Average Plasma Concentrations of Compound (2) after Single-Dose Administration ([1]; Compound (1) 400 mg L-SEDDS, Time 0.5 h): 8.84 ng/mL
Average Plasma Concentrations of Compound (2) after Single-Dose Administration ([1]; Compound (1) 400 mg L-SEDDS, Time 1 h): 36.7 ng/mL
Average Plasma Concentrations of Compound (2) after Single-Dose Administration ([1]; Compound (1) 400 mg L-SEDDS, Time 1.5 h): 45.6 ng/mL
Average Plasma Concentrations of Compound (2) after Single-Dose Administration ([1]; Compound (1) 400 mg L-SEDDS, Time 2 h): 45.0 ng/mL
Average Plasma Concentrations of Compound (2) after Single-Dose Administration ([1]; Compound (1) 400 mg L-SEDDS, Time 2.5 h): 40.1 ng/mL
Average Plasma Concentrations of Compound (2) after Single-Dose Administration ([1]; Compound (1) 400 mg L-SEDDS, Time 3 h): 31.8 ng/mL
Average Plasma Concentrations of Compound (2) after Single-Dose Administration ([1]; Compound (1) 400 mg L-SEDDS, Time 4 h): 22.6 ng/mL
Average Plasma Concentrations of Compound (2) after Single-Dose Administration ([1]; Compound (1) 400 mg L-SEDDS, Time 5 h): 14.3 ng/mL
Average Plasma Concentrations of Compound (2) after Single-Dose Administration ([1]; Compound (1) 400 mg L-SEDDS, Time 6 h): 8.41 ng/mL
Average Plasma Concentrations of Compound (2) after Single-Dose Administration ([1]; Compound (1) 400 mg L-SEDDS, Time 7 h): 6.54 ng/mL
Average Plasma Concentrations of Compound (2) after Single-Dose Administration ([1]; Compound (1) 400 mg L-SEDDS, Time 8 h): 4.76 ng/mL
Average Plasma Concentrations of Compound (2) after Single-Dose Administration ([1]; Compound (1) 400 mg L-SEDDS, Time 12 h): 4.34 ng/mL
Average Plasma Concentrations of Compound (2) after Single-Dose Administration ([1]; Compound (1) 400 mg L-SEDDS, Time 15 h): 3.90 ng/mL
Average Plasma Concentrations of Compound (2) after Single-Dose Administration ([1]; Compound (1) 400 mg L-SEDDS, Time 21 h): 3.98 ng/mL
Average Plasma Concentrations of Compound (2) after Single-Dose Administration ([1]; Compound (1) 400 mg L-SEDDS, Time 24 h): 3.79 ng/mL
Judgment Trough Value ([1]; 6/CAP): C (less than IC50 (1.9 ng/mL))
Judgment Trough Value ([1]; 20/CAP): C (less than IC50 (1.9 ng/mL))
Plasma Concentration Trough Value ([1]; 20/CAP): 0.25 ng/mL
Judgment Trough Value ([1]; 100/CAP): C (less than IC50 (1.9 ng/mL))
Plasma Concentration Trough Value ([1]; 100/CAP): 1.03 ng/mL
Judgment Trough Value ([1]; 200/C-SEDDS): C (less than IC50 (1.9 ng/mL))
Plasma Concentration Trough Value ([1]; 200/C-SEDDS): 1.69 ng/mL
Plasma Concentration Trough Value ([1]; 200/L-SEDDS): 2.25 ng/mL
Plasma Concentration Trough Value ([1]; 400/L-SEDDS): 3.79 ng/mL
trough value resulting from C-SEDDS relative to the trough value resulting from L-SEDDS ([1]; single-dose administration, 200 mg): about 75%
24-Hour Post-Dose Trough Values of Compound (2) after Repeated Administration ([2]; Day 1): 5.092 ng/mL
24-Hour Post-Dose Trough Values of Compound (2) after Repeated Administration ([2]; Day 2): 10.90 ng/mL
24-Hour Post-Dose Trough Values of Compound (2) after Repeated Administration ([2]; Day 3): 10.60 ng/mL
24-Hour Post-Dose Trough Values of Compound (2) after Repeated Administration ([2]; Day 4): 14.21 ng/mL
24-Hour Post-Dose Trough Values of Compound (2) after Repeated Administration ([2]; Day 5): 19.56 ng/mL
24-Hour Post-Dose Trough Values of Compound (2) after Repeated Administration ([2]; Day 6): 17.27 ng/mL
24-Hour Post-Dose Trough Values of Compound (2) after Repeated Administration ([2]; Day 7): 19.85 ng/mL
24-Hour Post-Dose Trough Values of Compound (2) after Repeated Administration ([2]; Day 8): 22.03 ng/mL
24-Hour Post-Dose Trough Values of Compound (2) after Repeated Administration ([2]; Day 9): 22.80 ng/mL
24-Hour Post-Dose Trough Values of Compound (2) after Repeated Administration ([2]; Day 10): 13.04 ng/mL
Average Plasma Concentrations of Compound (2) on Day 10 of Repeated Administration ([2]; Day 10, Time 0.5 h): 23.82 ng/mL
Average Plasma Concentrations of Compound (2) on Day 10 of Repeated Administration ([2]; Day 10, Time 1 h): 43.52 ng/mL
Average Plasma Concentrations of Compound (2) on Day 10 of Repeated Administration ([2]; Day 10, Time 1.5 h): 44.71 ng/mL
Average Plasma Concentrations of Compound (2) on Day 10 of Repeated Administration ([2]; Day 10, Time 2 h): 40.35 ng/mL
Average Plasma Concentrations of Compound (2) on Day 10 of Repeated Administration ([2]; Day 10, Time 2.5 h): 34.19 ng/mL
Average Plasma Concentrations of Compound (2) on Day 10 of Repeated Administration ([2]; Day 10, Time 3 h): 32.09 ng/mL
Average Plasma Concentrations of Compound (2) on Day 10 of Repeated Administration ([2]; Day 10, Time 4 h): 28.31 ng/mL
Average Plasma Concentrations of Compound (2) on Day 10 of Repeated Administration ([2]; Day 10, Time 5 h): 25.14 ng/mL
Average Plasma Concentrations of Compound (2) on Day 10 of Repeated Administration ([2]; Day 10, Time 6 h): 17.77 ng/mL
Average Plasma Concentrations of Compound (2) on Day 10 of Repeated Administration ([2]; Day 10, Time 7 h): 14.77 ng/mL
Average Plasma Concentrations of Compound (2) on Day 10 of Repeated Administration ([2]; Day 10, Time 8 h): 13.57 ng/mL
Average Plasma Concentrations of Compound (2) on Day 10 of Repeated Administration ([2]; Day 10, Time 12 h): 16.86 ng/mL
Average Plasma Concentrations of Compound (2) on Day 10 of Repeated Administration ([2]; Day 10, Time 15 h): 11.33 ng/mL
Average Plasma Concentrations of Compound (2) on Day 10 of Repeated Administration ([2]; Day 10, Time 21 h): 15.69 ng/mL
Average Plasma Concentrations of Compound (2) on Day 10 of Repeated Administration ([2]; Day 10, Time 24 h): 13.04 ng/mL
24-Hour Post-Dose Trough Values of Compound (2) after Repeated Administration ([2]; Initial Value): 0.000 ng/mL
increase of plasma concentration (trough value) after 24 hours on the 10th day of repeated administration ([2]; L-SEDDS 400 mg once daily, versus single-dose administration): more than threefold
Judgment Trough Value [2, 3]: A (IC90 (6.9 ng/mL) or higher)
Plasma Concentration Trough Value [2, 3]: 13.04 ng/mL and 13.0 ng/mL
Structure (SMILES): Cc1cc(=O)n(-c2ccc(C[C@H](NC(=O)c3cc(F)c(NS(=O)(=O)c4ccc(NC(=O)C(C)(C)C)cc4)cc3F)C(=O)O)cn2)c(=O)n1C [Compound (2)]
Judgment Trough Value ([1]; 200/L-SEDDS): B (IC50 (1.9 ng/mL) or higher and less than IC90 (6.9 ng/mL))
Judgment Trough Value ([1]; 400/L-SEDDS): B (IC50 (1.9 ng/mL) or higher and less than IC90 (6.9 ng/mL))

— patent EP4691468A1, “PHARMACEUTICAL COMPOSITION FOR TREATING INFLAMMATORY BOWEL DISEASE” (EA Pharma Co., Ltd., priority 2023, dated 2024)
